# Measurements reported in patent US20250092016A1, “COMPOUNDS AND COMPOSITIONS FOR THE TREATMENT OF CORONAVIRAL RELATED DISEASES” (priority 2021, published 2025).
# Biological target: SARS-CoV-2 main protease (M^pro) (Severe acute respiratory syndrome coronavirus 2, UniProt P0DTD1)
# Assay: Rapid-Fire MS Biochemical Assay measuring Mpro activity (5 nM Mpro)
# Conditions: Table 1B, Mpro inhibition, 5 μM substrate peptide, 120 min, read-out: Rapid-Fire Assay IC50
smiles,measurement,value
"N#C[C@H]1CN(c2cccc(C(F)(F)F)n2)C(=O)N1c1cncc2ccccc12 (single isomer, unassigned) [Compound 51a]",IC50,20 to 200 nM
"N#C[C@H]1CN(c2ccc(C(F)(F)F)cc2)C(=O)N1c1cncc2ccccc12 (single isomer, unassigned) [Compound 99a]",IC50,< 20 nM
"C[C@@]1(C#N)CN(c2cccc(Cl)c2)C(=O)N1c1cncc2ccccc12 (single isomer, unassigned) [Compound 40b]",IC50,> 1000 nM
"Cc1ncccc1N1C[C@H](C#N)N(c2cncc3ccccc23)C1=O (single isomer, unassigned) [Compound 74a]",IC50,200 to 1000 nM
"COc1cc(Cl)ccc1N1C[C@H](C#N)N(c2cncc3ccccc23)C1=O (single isomer, unassigned) [Compound 103a]",IC50,< 20 nM
"N#Cc1ccc(C(F)(F)F)cc1N1C[C@H](C#N)N(c2cncc3ccccc23)C1=O (single isomer, unassigned) [Compound 90a]",IC50,< 20 nM
"N#C[C@@H]1CN(c2cnc(C(F)(F)F)cn2)C(=O)N1c1cncc2ccccc12 (single isomer, unassigned) [Compound 32b]",IC50,> 1000 nM
"Cc1ccnc(N2C[C@@H](C#N)N(c3cncc4ccccc34)C2=O)n1 (single isomer, unassigned) [Compound 53b]",IC50,> 1000 nM
"N#C[C@@H]1CN(c2ccccc2F)C(=O)N1c1cncc2ccccc12 (single isomer, unassigned) [Compound 56b]",IC50,> 1000 nM
"Cn1ccc(N2C[C@H](C#N)N(c3cncc4ccccc34)C2=O)cc1=O (single isomer, unassigned) [Compound 67a]",IC50,20 to 200 nM
"N#C[C@@H]1CN(c2ncc(C(F)(F)F)[nH]2)C(=O)N1c1cncc2ccccc12 (single isomer, unassigned) [Compound 68b]",IC50,> 1000 nM
"N#C[C@@H]1CN(C23CC(C(F)(F)F)(C2)C3)C(=O)N1c1cncc2ccccc12 (single isomer, unassigned) [Compound 137b]",IC50,> 1000 nM
"N#C[C@@H]1CN(c2ccc(C(F)F)cn2)C(=O)N1c1cncc2ccccc12 (single isomer, unassigned) [Compound 78b]",IC50,> 1000 nM
"N#C[C@H]1CN(c2ccc(OC(F)F)cc2F)C(=O)N1c1cncc2ccccc12 (single isomer, unassigned) [Compound 83a]",IC50,20 to 200 nM
"CS(=O)(=O)c1ccc2cncc(N3C(=O)N(c4cccc(Cl)c4)C[C@H]3C#N)c2c1 (single isomer, unassigned) [Compound 37b]",IC50,> 1000 nM
"Cc1ccc(C(F)(F)F)nc1N1C[C@H](C#N)N(c2cncc3ccccc23)C1=O (single isomer, unassigned) [Compound 82a]",IC50,20 to 200 nM
"N#C[C@@H]1CN(C2CCC(F)(F)C2)C(=O)N1c1cncc2ccccc12 (single isomer, unassigned) [Compound 141c, (S)-1-((S)-3,3-difluorocyclopentyl)-3-(isoquinolin-4-yl)-2-oxoimidazolidine-4-carbonitrile or (S)-1-((R)-3,3-difluorocyclopentyl)-3-(isoquinolin-4-yl)-2-oxoimidazolidine-4-carbonitrile]",IC50,> 1000 nM
"N#C[C@@H]1CN(c2ccc(F)c(F)c2)C(=O)N1c1cncc2ccccc12 (single isomer, unassigned) [Compound 72b]",IC50,200 to 1000 nM
"Cc1cc(N2C[C@H](C#N)N(c3cncc4ccccc34)C2=O)ccn1 (single isomer, unassigned) [Compound 44a]",IC50,20 to 200 nM
"N#C[C@H]1CN(C2CC3(CCC3)C2)C(=O)N1c1cncc2ccccc12 (single isomer, unassigned) [Compound 122a]",IC50,< 20 nM
"Cc1cnc(C(F)(F)F)cc1N1C[C@H](C#N)N(c2cncc3ccccc23)C1=O (single isomer, unassigned) [Compound 70a]",IC50,< 20 nM
"COc1ccc(C#N)cc1N1C[C@H](C#N)N(c2cncc3ccccc23)C1=O (single isomer, unassigned) [Compound 15a]",IC50,< 20 nM
"N#C[C@@H]1CN(c2cc(F)cc(F)c2)C(=O)N1c1cncc2ccccc12 (single isomer, unassigned) [Compound 110b]",IC50,200 to 1000 nM
"N#CC1CN(c2cccc(OC(F)(F)F)c2)C(=O)N1c1cncc2ccccc12 (racemic) [Compound 92, 3-(isoquinolin-4-yl)-2-oxo-1-(3-(trifluoromethoxy)phenyl)imidazolidine-4-carbonitrile]",IC50,< 20 nM
"CS(=O)(=O)c1ccc2cncc(N3C(=O)N(c4cc(F)cc(F)c4)C[C@H]3C#N)c2c1 (single isomer, unassigned) [Compound 86b]",IC50,> 1000 nM
"COc1nc(C(F)(F)F)ccc1N1C[C@H](C#N)N(c2cncc3ccccc23)C1=O (single isomer, unassigned) [Compound 95a]",IC50,< 20 nM
"N#CC1CN([C@H]2CC[C@H](C(F)(F)F)CC2)C(=O)N1c1cncc2ccccc12 (stereo partly drawn) [Compound 128, 3-(isoquinolin-4-yl)-2-oxo-1-((1 r,4r)-4-(trifluoromethyl)cyclohexyl)imidazolidine-4-carbonitrile]",IC50,< 20 nM
"COc1ccc(Cl)cc1N1C[C@H](C#N)N(c2cncc3ccccc23)C1=O (single isomer, unassigned) [Compound 115a]",IC50,< 20 nM
"N#CC1CN(c2cc(F)cc(F)c2)C(=O)N1c1cncc2ccccc12 (racemic) [Compound 110, 1-(3,5-difluorophenyl)-3-(isoquinolin-4-yl)-2-oxoimidazolidine-4-carbonitrile]",IC50,< 20 nM
"N#C[C@@H]1CN(c2cc(OC(F)F)ccc2F)C(=O)N1c1cncc2ccccc12 (single isomer, unassigned) [Compound 59b]",IC50,> 1000 nM
"COc1cc(Cl)cnc1N1C[C@H](C#N)N(c2cncc3ccccc23)C1=O (single isomer, unassigned) [Compound 58a]",IC50,20 to 200 nM
"N#C[C@H]1CN(c2ccc(C(F)(F)F)cn2)C(=O)N1c1cncc2ccccc12 (single isomer, unassigned) [Compound 97a]",IC50,< 20 nM
"N#C[C@@H]1CN(C2CC3(C2)CC(F)(F)C3)C(=O)N1c1cncc2ccccc12 (single isomer, unassigned) [Compound 127b]",IC50,> 1000 nM
"COc1cc(C(F)(F)F)ncc1N1C[C@H](C#N)N(c2cncc3ccccc23)C1=O (single isomer, unassigned) [Compound 107a]",IC50,20 to 200 nM
"CS(=O)(=O)c1cccc(N2C[C@@H](C#N)N(c3cncc4ccccc34)C2=O)c1 (single isomer, unassigned) [Compound 48b]",IC50,> 1000 nM
"N#C[C@@H]1CN(c2ccnc(C(F)(F)F)c2)C(=O)N1c1cncc2ccccc12 (single isomer, unassigned) [Compound 57b]",IC50,> 1000 nM
"COc1ccc(Cl)cc1N1C[C@@H](C#N)N(c2cncc3ccccc23)C1=O (single isomer, unassigned) [Compound 115b]",IC50,> 1000 nM
"CS(=O)(=O)c1ccc2cncc(N3C(=O)N(c4cccc(Cl)c4)C[C@@H]3C#N)c2c1 (single isomer, unassigned) [Compound 37a]",IC50,< 20 nM
"N#C[C@H]1CN(C23CC(C(F)(F)F)(C2)C3)C(=O)N1c1cncc2ccccc12 (single isomer, unassigned) [Compound 137a]",IC50,< 20 nM
"N#Cc1cc(C(F)(F)F)ncc1N1C[C@H](C#N)N(c2cncc3ccccc23)C1=O (single isomer, unassigned) [Compound 18a]",IC50,< 20 nM
"N#Cc1cc(C(F)(F)F)ncc1N1C[C@@H](C#N)N(c2cncc3ccccc23)C1=O (single isomer, unassigned) [Compound 18b]",IC50,> 1000 nM
"N#C[C@@H]1CN([C@H]2C[C@@H](C3CC3)C2)C(=O)N1c1cncc2ccccc12 [Compound 124d, (S)-1-((1s,3R)-3-cyclopropylcyclobutyl)-3-(isoquinolin-4-yl)-2-oxoimidazolidine-4-carbonitrile]",IC50,> 1000 nM
"N#CC1CN(C2CCCC(F)(F)C2)C(=O)N1c1cncc2ccccc12 (stereo not drawn) [Compound 29, 1-(3,3-difluorocyclohexyl)-3-(isoquinolin-4-yl)-2-oxoimidazolidine-4-carbonitrile]",IC50,20 to 200 nM
"N#C[C@@H]1CN(c2cc(F)ccc2F)C(=O)N1c1cncc2ccccc12 (single isomer, unassigned) [Compound 109b]",IC50,> 1000 nM
"N#CC1CN(C2CC3(C2)CC(F)(F)C3)C(=O)N1c1cncc2ccccc12 (racemic) [Compound 127, 1-(6,6-difluorospiro[3.3]heptan-2-yl)-3-(isoquinolin-4-yl)-2-oxoimidazolidine-4-carbonitrile]",IC50,< 20 nM
"CC(C)(O)c1ccc(N2C[C@@H](C#N)N(c3cncc4ccccc34)C2=O)cc1 (single isomer, unassigned) [Compound 84b]",IC50,> 1000 nM
"COc1cc(C(F)(F)F)ccc1N1C[C@@H](C#N)N(c2cncc3ccccc23)C1=O (single isomer, unassigned) [Compound 12b]",IC50,> 1000 nM
"N#C[C@H]1CN(C2CC3(CC3)C2)C(=O)N1c1cncc2ccccc12 (single isomer, unassigned) [Compound 125a]",IC50,< 20 nM
"Cc1ccc(OC(F)F)cc1N1C[C@H](C#N)N(c2cncc3ccccc23)C1=O (single isomer, unassigned) [Compound 101a]",IC50,< 20 nM
"N#CC1CN(c2ccc(F)c(F)c2)C(=O)N1c1cncc2ccccc12 (racemic) [Compound 72, 1-(3,4-difluorophenyl)-3-(isoquinolin-4-yl)-2-oxoimidazolidine-4-carbonitrile]",IC50,< 20 nM
"CC1(C)CC(N2C[C@@H](C#N)N(c3cncc4ccccc34)C2=O)C1 (single isomer, unassigned) [Compound 126b]",IC50,> 1000 nM
"N#CC1CN(c2ccc(=O)[nH]c2)C(=O)N1c1cncc2ccccc12 (racemic) [Compound 113, 3-(isoquinolin-4-yl)-2-oxo-1-(6-oxo-1,6-dihydropyridin-3-yl)imidazolidine-4-carbonitrile]",IC50,> 1000 nM
"COc1ccc(C(F)(F)F)cc1N1C[C@@H](C#N)N(c2cncc3ccccc23)C1=O (single isomer, unassigned) [Compound 17b]",IC50,> 1000 nM
"Cc1ccc(Cl)cc1N1C[C@H](C#N)N(c2cncc3ccccc23)C1=O (single isomer, unassigned) [Compound 114a]",IC50,< 20 nM
